Assay results: patent US10072014B2 (Janssen Pharmaceutica NV, priority 2014, dated 2018)

Tests used:
human mGlu2 receptor = molecular target: T1, human mGlu2 receptor (Homo sapiens, UniProt Q14416); assay: [35S]GTPγS binding assay, negative allosteric modulation of mGluR2; type: biochemical; settings: for Emax: maximal % inhibition relative to the control glutamate response (EC80 glutamate), read-out: GTPγS-hmGluR2 anGT Emax; for IC50: membranes from CHO cells transfected with human mGlu2 receptor, glutamate 60 μM (~EC80), read-out: GTPγS-hmGluR2 anGT pIC50 (converted)
T1 construct: expressed in transfected cells; host or cells: CHO cells
T1 sequence (Q14416 19-872): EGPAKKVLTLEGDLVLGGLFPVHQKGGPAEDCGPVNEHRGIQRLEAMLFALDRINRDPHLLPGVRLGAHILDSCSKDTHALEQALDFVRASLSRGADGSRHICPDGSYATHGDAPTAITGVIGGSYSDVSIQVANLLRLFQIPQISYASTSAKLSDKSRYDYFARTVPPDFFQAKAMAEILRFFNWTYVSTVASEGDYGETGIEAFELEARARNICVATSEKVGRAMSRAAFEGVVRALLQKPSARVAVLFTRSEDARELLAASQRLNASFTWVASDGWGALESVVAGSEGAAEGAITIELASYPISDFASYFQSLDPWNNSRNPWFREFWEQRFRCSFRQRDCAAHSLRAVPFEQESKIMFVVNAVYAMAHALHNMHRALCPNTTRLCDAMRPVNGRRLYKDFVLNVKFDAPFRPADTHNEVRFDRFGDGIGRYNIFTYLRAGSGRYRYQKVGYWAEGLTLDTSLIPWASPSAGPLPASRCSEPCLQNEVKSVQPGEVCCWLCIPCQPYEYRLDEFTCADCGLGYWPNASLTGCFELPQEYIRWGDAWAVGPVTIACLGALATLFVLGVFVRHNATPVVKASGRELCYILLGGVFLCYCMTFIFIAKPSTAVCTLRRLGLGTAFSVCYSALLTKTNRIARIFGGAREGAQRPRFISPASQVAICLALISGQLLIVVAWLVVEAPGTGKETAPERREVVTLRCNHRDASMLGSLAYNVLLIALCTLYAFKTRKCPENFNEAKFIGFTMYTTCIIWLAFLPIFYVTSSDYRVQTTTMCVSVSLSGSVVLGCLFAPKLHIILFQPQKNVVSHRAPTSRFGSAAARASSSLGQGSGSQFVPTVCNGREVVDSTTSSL
From the text: The compounds provided in the present invention are negative allosteric modulators of mGluR2. These compounds appear to inhibit glutamate responses by binding to an allosteric site other than the glutamate binding site. The response of mGluR2 to a concentration of glutamate is decreased when compounds of Formula (I) are present. Compounds of Formula (I) are expected to have their effect substantially at mGluR2 by virtue of their ability to reduce the function of the receptor. The effects of negative allosteric modulators tested at mGluR2 using the [^35S]GTPγS binding assay method described below and which is suitable for the identification of such compounds, and more particularly the compounds according to Formula (I), are shown in Table 7.
1) [^35S]GTPγS Binding Assay
The [^35S]GTPγS binding assay is a functional membrane-based assay used to study G-protein coupled receptor (GPCR) function whereby incorporation of a non-hydrolysable form of GTP, [^35S]GTPγS (guanosine 5′-triphosphate, labelled with […] ^35S), is measured. The G-protein a subunit catalyzes the exchange of guanosine 5′-diphosphate (GDP) by guanosine triphosphate (GTP) and on activation of the GPCR by an agonist, [^35S]GTPγS, becomes incorporated and cannot be cleaved to continue the exchange cycle (Harper (1998) Current Protocols in Pharmacology 2.6.1-10, John Wiley & Sons, Inc.). […] Here we describe the use of the [^35S]GTPγS binding assay using membranes from cells transfected with the human mGlu2 receptor and adapted from Schaffhauser et al. (Molecular Pharmacology, 2003, […]) for the detection of the negative allosteric modulation (NAM) properties of the compounds of this invention.
CHO-cells were cultured to pre-confluence and stimulated with 5 mM butyrate for 24 h. Cells were then collected by scraping in PBS and cell suspension was centrifuged (10 min at 4000 RPM in benchtop centrifuge). Supernatant was discarded and pellet gently resuspended in 50 mM Tris-HCl, pH 7.4 by mixing with an Ultra Turrax homogenizer. The suspension was centrifuged at 12,400 RPM (Sorvall F14S-6x250Y) for 10 minutes and the supernatant discarded. The pellet was homogenized in 5 mM Tris-HCl, pH 7.4 using an Ultra Turrax homogenizer and centrifuged again (13,000 RPM, 20 min, 4° C.). The final pellet was resuspended in 50 mM Tris-HCl, pH 7.4 and stored at −80° C. in appropriate aliquots before use. Protein concentration was determined by the Bradford method (Bio-Rad, USA) with bovine serum albumin as standard.
[^35S]GTPγS Binding Assay
Measurement of mGluR2 negative allosteric modulatory activity of test compounds was performed as follows. Test compounds and glutamate were diluted in assay buffer containing 10 mM HEPES acid, 10 mM HEPES salt, pH 7.4, 100 mM NaCl, 3 mM MgCl2 and 10 μM GDP. Human mGlu2 receptor-containing membranes were thawed on ice and diluted in assay buffer supplemented with 18 μg/ml saponin. Membranes were pre-incubated with compound together with a predefined (˜EC80) concentration of glutamate (60 μM) for 30 min at 30° C. After addition of [^35S]GTPγS (f.c. 0.1 nM), assay mixtures were shaken briefly and further incubated to allow [^35S]GTPγS incorporation on activation (30 minutes, 30° C.). Final assay mixtures contained 7 μg of membrane protein in 10 mM HEPES acid, 10 mM HEPES salt, pH 7.4, 100 mM NaCl, 3 mM MgCl2, 10 μM GDP and 10 μg/ml saponin. Total reaction volume was 200 μl. Reactions were terminated by rapid filtration through Unifilter-96 GF/B plates (Perkin Elmer, Massachusetts, USA) using a 96-well filtermate universal harvester. Filters were washed 6 times with ice-cold 10 mM NaH2PO4/10 mM Na2HPO4, pH 7.4. Filters were then air-dried, and 30 μl of liquid scintillation cocktail (Microscint-O) was added to each well. Membrane-bound radioactivity was counted in a Topcount.
The concentration-response curves of representative compounds of the present invention were generated using the Lexis software interface (developed at J&J). […]

rats = assay: Reversal of the effect of the mGluR2 PAM JNJ-42153605-induced inhibition of scopolamine-induced hyperlocomotion; type: in vivo; settings: Rattus norvegicus, PO, criterion for reversal: total distance >1500 cm, read-out: ED50 SCOP JNJ-42153605
Procedure: 2) Reversal of the Effect of the mGluR2 PAM JNJ-42153605-induced Inhibition of Scopolamine-induced Hyperlocomotion Apparatus
Motor activity was measured in microprocessor-based motor activity arenas (closed gray PVC cylinders with a height of 39 cm and a diameter of 31 cm). Each arena was placed on an infrared LED (8×8 LEDs) lit box (white PVC squared box; 40×40 cm^2; height 12.5 cm. An infrared-sensitive tube camera and a white light source were mounted to the ceiling above the observation chamber to track the animal. The total distance traveled (cm) was recorded and analyzed using the Noldus Ethovision XT Video Tracking System (Version 7.0.418; Noldus, Wageningen, The Netherlands). The intensity of the light within the activity cages (measured in the centre at the level of the floor) ranged between 4 and 8 LUX.
The rats were pretreated with test compound or vehicle at 60 min before the start of the activity recordings and placed into individual cages. The rats were challenged with JNJ-42153605 (3-(cyclopropylmethyl)-7-(4-phenylpiperidin-1-yl)-8-(trifluoromethyl)-[1,2,4]triazolo[4,3-a]pyridine; WO2010/130424; Cid et al. J. Med. Chem. 2012, 55, 8770-8789) (20 mg/kg, i.v.) 30 min before the start of the activity recording combined with scopolamine (0.16 mg/kg, i.v.) just before the start of the activity measurements. Immediately after the injection of scopolamine, the rats were placed into the activity monitors and total distance traveled over the first 30 min was measured.
Solvent-pretreated Control Rats.
Animals receiving the combination of JNJ-42153605 and scopolamine (n=433) almost always traveled a distance of less than 1500 cm (<1500 cm) (only 2.5% of the control rats traveled a distance of more than 1500 cm (>1500 cm)). On the other hand, animals challenged with scopolamine alone (n=215) always traveled a total distance of more than 1500 cm (>1500 cm) and almost always (in 95.8% of the rats) a distance of more than 4400 cm (>4400 cm). […] For reversal of the inhibitory effect of JNJ-42153605 on the scopolamine-induced hyperlocomotion, the following all-or-none criteria were adopted: (1) reversal: total distance>1500 cm.

SMILES | Emax (human mGlu2 receptor) | IC50 (human mGlu2 receptor) | melting point | ED50 (rats)
C[C@H]1CN(c2ccc(C(F)(F)F)cc2)C(=O)c2c(-c3nc[nH]c3Br)cnn21 [Compound 1] | 99.3% | 11.5 nM | 228.68 °C | 
C[C@H]1CN(c2ccc(C(F)(F)F)cc2)C(=O)c2c(-c3c[nH]c(C4CC4)n3)cnn21 [Compound 2] | 103% | 20 nM |  | 
C[C@H]1CN(c2ccc(C(F)(F)F)cc2)C(=O)c2c(-c3nc(-c4ccc(N)nc4)[nH]c3Cl)cnn21 [Compound 3] | 108% | 25.1 nM |  | 
C[C@H]1CN(c2ccc(C(F)(F)F)cc2)C(=O)c2c(-c3c[nH]c(-c4ccccc4)n3)cnn21 [Compound 5] | 105% | 27.5 nM | 119.88 °C | 
CC(C)c1nc(-c2cnn3c2C(=O)N(c2ccc(C(F)(F)F)cc2)C[C@@H]3C)c[nH]1 [Compound 6] | 104% | 30.9 nM | 156.03 °C | 
Cc1nc(C2CC2)[nH]c1-c1cnn2c1C(=O)N(c1ccc(C(F)(F)F)cc1)C[C@@H]2C [Compound 7] | 106% | 31.6 nM |  | > 0.63 mg/kg
C[C@H]1CN(c2ccc(C(F)(F)F)cc2)C(=O)c2c(-c3cnc(C(F)(F)F)[nH]3)cnn21 [Compound 8] | 108% | 33.1 nM |  | 
C[C@H]1CN(c2ccc(C(F)(F)F)cc2)C(=O)c2c(-c3nc(-c4ccc(N)nc4)[nH]c3Br)cnn21 [Compound 9] | 108% | 34.7 nM |  | 
C[C@H]1CN(c2ccc(C(F)(F)F)cc2)C(=O)c2c(-c3cnc(C#N)[nH]3)cnn21 [Compound 10] | 107% | 36.3 nM | 219.19 °C | 
C[C@H]1CN(c2ccc(C(F)(F)F)cc2)C(=O)c2c(-c3cnc[nH]3)cnn21 [Compound 12] | 101% | 70.8 nM | 176.92 °C | 
COCc1ncc(-c2cnn3c2C(=O)N(c2ccc(C(F)(F)F)cc2)C[C@@H]3C)[nH]1 [Compound 13] | 104% | 83.2 nM |  | 
Cc1[nH]c(-c2cccnc2)nc1-c1cnn2c1C(=O)N(c1ccc(C(F)(F)F)cc1)C[C@@H]2C [Compound 14] | 103% | 110 nM | 244.74 °C | 
CNc1ncc(-c2cnn3c2C(=O)N(c2ccc(C(F)(F)F)cc2)C[C@@H]3C)[nH]1 [Compound 15] | 102% | 170 nM | 205 °C | 
Cc1[nH]c(-c2ccccn2)nc1-c1cnn2c1C(=O)N(c1ccc(C(F)(F)F)cc1)C[C@@H]2C [Compound 17] | 106% | 145 nM | 198.73 °C | 
C[C@H]1CN(c2ccc(Cl)c(Cl)c2)C(=O)c2c(-c3c[nH]c(-c4ccc(N)nc4)n3)cnn21 [Compound 19] | 108% | 50.1 nM |  | 
Cc1cc(N2C[C@H](C)n3ncc(-c4c[nH]c(-c5ccc(N)nc5)n4)c3C2=O)ccc1C(F)(F)F [Compound 20] | 107% | 53.7 nM | 275.27 °C | 
Cc1nc(-c2cnn3c2C(=O)N(c2ccc(C(F)(F)F)c(C#N)c2)C[C@@H]3C)c[nH]1 [Compound 23] | 104% | 64.6 nM | 226.81 °C | 
Cc1ncc(-c2cnn3c2C(=O)N(c2ccc(C(F)(F)F)c(CF)c2)C[C@@H]3C)[nH]1 [Compound 24] | 106% | 15.8 nM | 174.28 °C | 
C[C@H]1CN(c2ccc(C(F)(F)F)c(Cl)c2)C(=O)c2c(-c3c[nH]c(C#N)n3)cnn21 [Compound 29] | 111% | 3.89 nM |  | 
CNC(=O)c1nc(-c2cnn3c2C(=O)N(c2ccc(C(F)(F)F)c(Cl)c2)C[C@@H]3C)c[nH]1 [Compound 35] | 111% | 38 nM |  | 
C[C@H]1CN(c2ccc(C(F)(F)F)c(Cl)c2)C(=O)c2c(-c3c[nH]c(C(=O)N(C)C)n3)cnn21 [Compound 36] | 106% | 110 nM |  | 
C[C@H]1CN(c2ccc(C(F)(F)F)c(Cl)c2)C(=O)c2c(-c3c[nH]c(-c4cccnc4)n3)cnn21 [Compound 37] | 109% | 12.9 nM | 188.06 °C | 
Cc1[nH]c(-c2ccccn2)nc1-c1cnn2c1C(=O)N(c1ccc(C(F)(F)F)c(Cl)c1)C[C@@H]2C [Compound 38] | 105% | 21.4 nM | 232.11 °C | 
C[C@H]1CN(c2ccc(C(F)(F)F)c(Cl)c2)C(=O)c2c(-c3c[nH]c(-c4ccccn4)n3)cnn21 [Compound 39] | 104% | 8.32 nM |  | 
C[C@H]1CN(c2ccc(C(F)(F)F)cc2)C(=O)c2c(-c3cnc(C4CCC4)[nH]3)cnn21 [Compound 40] | 107% | 6.92 nM |  | 
Cc1cc(-c2ncc(-c3cnn4c3C(=O)N(c3ccc(C(F)(F)F)cc3)C[C@@H]4C)[nH]2)ccn1 [Compound 41] | 106% | 166 nM |  | 
C[C@H]1CN(c2ccc(C(F)(F)F)c(Cl)c2)C(=O)c2c(-c3c[nH]c(C4CCC4)n3)cnn21 [Compound 42] | 109% | 1.86 nM | 173.18 °C | 
C[C@H]1CN(c2ccc(C(F)(F)F)c(Cl)c2)C(=O)c2c(-c3c[nH]c(-c4cnccn4)n3)cnn21 [Compound 43] | 106% | 4.9 nM | 227.75 °C | 
C[C@H]1CN(c2ccc(C(F)(F)F)cc2)C(=O)c2c(-c3c[nH]c(-c4cnccn4)n3)cnn21 [Compound 44] | 103% | 38.9 nM |  | 
C[C@H]1CN(c2ccc(C(F)(F)F)c(Cl)c2)C(=O)c2c(-c3nc(-c4ccc(N)nc4)[nH]c3C#N)cnn21 [Compound 45] | 106% | 34.7 nM |  | 
